In patent US11149011B2, “Compounds and methods for IDO and TDO modulation, and indications therefor” (Plexxikon Inc., priority 2018, dated 2021) one finds IC50 data, which are given here for 22 molecules.

Where two headings read alike, the source gives them in different places.

One test deals with T1, IDO1 (Homo sapiens, UniProt P14902).
T1 construct: His tag (N); made in house; host or cells: E. coli
In words: IDO enzymatic assay. In kind it is biochemical. The procedure:
(§1) Human IDO or TDO with N-terminal His tag is purified in E. coli. The IDO enzymatic assay is performed using 6 nM IDO and 10 μM L-Trp in the presence of 10 mM ascorbic acid, 5 μM methylene blue, 100 nM catalase and 0.01% Tween 20 in 50 mM sodium phosphate buffer (pH 6.5). 19 μL of above reaction mixture is added to wells of 384 well reaction plate containing 1 μL of various concentrations of test compound or DMSO vehicle and incubated for 20 minutes at room temperature. The TDO enzymatic reaction assay is performed using 1 nM TDO and 350 μM L-Trp in the presence of 10 mM ascorbic acid, 0.4 μM methylene blue, 100 nM catalase and 0.01% Tween 20 in 50 mM sodium phosphate buffer (pH 6.5). 19 μL of above reaction mixture is added to wells of 384 well reaction plate containing 1 μL of various concentrations of test compound or DMSO vehicle and incubated for 70 minutes at room temperature. 16 wells containing all the components of reaction mixture and 5% DMSO serve as high control. 16 well containing all the components except enzyme of reaction mixture and 5% DMSO serves as low control. Both IDO and TDO enzymatic reactions are stopped by addition of 4 μL of 30% TCA and incubated 30 minutes at 50° C. to hydrolyze N-formylkynurenine produced by IDO or TDO to kynurenine. Upon measuring the kynurenine level, the percentage inhibition is calculated at individual concentrations relative to high and low controls. The data is analyzed by using nonlinear regression to generate IC50 values.

In test [1] the target is T2, TDO-expressing HEK293 cell clones (Homo sapiens, UniProt P48775).
T2 construct: expressed in transfected cells; host or cells: HEK293
T2 sequence (P48775 whole entry): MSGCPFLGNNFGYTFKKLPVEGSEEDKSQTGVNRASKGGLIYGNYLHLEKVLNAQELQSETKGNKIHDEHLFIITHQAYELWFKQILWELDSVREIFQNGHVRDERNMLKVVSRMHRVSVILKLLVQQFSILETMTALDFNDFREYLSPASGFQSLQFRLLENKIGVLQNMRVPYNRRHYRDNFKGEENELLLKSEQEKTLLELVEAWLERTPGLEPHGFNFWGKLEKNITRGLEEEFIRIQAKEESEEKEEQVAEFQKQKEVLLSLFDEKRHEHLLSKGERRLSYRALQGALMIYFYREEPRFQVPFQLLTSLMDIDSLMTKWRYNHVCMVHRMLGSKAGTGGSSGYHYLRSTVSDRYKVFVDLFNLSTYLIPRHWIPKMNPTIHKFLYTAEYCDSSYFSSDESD
In words: Cell based kynurenine assay, TDO-expressing HEK293 cell clones. The conditions noted are these: HEK293 cells, 24 hours of incubation, geometric mean; read-out: HEK293 TDO Kynurenine GMean IC50 (μM) (Cellular Assay). Here is the method: (§2) IDO1-expressing or TDO-expressing HEK293 cell clones are generated upon stable transfection of plasmids expressing human IDO or human TDO under the control of CMV promoter. Cells are selected in DMEM media supplemented with 10% fetal bovine serum and 1 mg/ml G418 at 37° C. in a humidified incubator supplied with 5% CO2. The assays are performed as follows.
(§3) Cells were seeded in a 96 well plate in 50 μL of culture media at a density of 2.5×10^4 per well. Serial dilutions of compounds (in total volume of 50 μL culture media) are added into cells. 4 wells containing 0.2% DMSO treated cells serve as high controls and 4 wells containing media only with 0.2% DMSO serve as low controls. After 24 hours of incubation, the supernatant was transferred to a 384 well reaction plate and the kynurenine level determined. The percentage inhibition at individual concentrations relative to high and low controls is calculated. The data is analyzed by using nonlinear regression to generate IC50 values.

Test [2] concerns the target T3, IDO1-expressing HEK293 cell clones (Homo sapiens, UniProt P14902).
T3 construct: expressed in transfected cells; host or cells: HEK293
The experiment in a line: Cell based kynurenine assay, IDO1-expressing HEK293 cell clones. The procedure:
as §2, §3

A further test deals with T4, TDO (Homo sapiens, UniProt P48775).
T4 construct: His tag (N); made in house; host or cells: E. coli
T4 sequence (P48775 whole entry): as above
The experiment in a line: TDO enzymatic assay. The note with it: geometric mean; read-out: TDO GMean: IC50 (μM) (Biochemical Assay). Here is the method: as §1

The mark [3] stands for this setting: geometric mean, read-out: IDO1 GMean: IC50 (μM) (Biochemical Assay).
Setting [4] is: HEK293 cells, 24 hours of incubation, geometric mean, read-out: HEK293 IDO1 Kynurenine GMean IC50 (μM) (Cellular Assay).
Where [5] appears, read: comparative examples 4,6 vs 5,7 indazole, cellular potency, read-out: hIDO1.

T1 sequence (P14902 whole entry): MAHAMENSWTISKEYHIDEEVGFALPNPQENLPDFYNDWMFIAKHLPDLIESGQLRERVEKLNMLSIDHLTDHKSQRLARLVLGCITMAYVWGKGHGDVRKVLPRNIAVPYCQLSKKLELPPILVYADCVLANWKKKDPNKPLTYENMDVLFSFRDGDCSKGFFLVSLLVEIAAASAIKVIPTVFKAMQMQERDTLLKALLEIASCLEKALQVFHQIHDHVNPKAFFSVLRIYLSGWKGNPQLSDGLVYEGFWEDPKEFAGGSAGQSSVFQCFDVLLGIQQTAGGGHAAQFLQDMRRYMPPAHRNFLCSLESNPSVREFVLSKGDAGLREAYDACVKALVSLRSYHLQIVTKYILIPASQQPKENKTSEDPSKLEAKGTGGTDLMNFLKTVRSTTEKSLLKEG
T3 sequence (P14902 whole entry): as above

As for `CC(C)(C1CCN(C(=O)NCCC#N)CC1)[C@H](O)c1cc(Cl)cc2cn[nH]c12` [Compound P-0030, (S)-4-(1-(5-chloro-1H-indazol-7-yl)-1-hydroxy-2-methylpropan-2-yl)-N-(2-cyanoethyl)piperidine-1-carboxamide], the IC50 (on IDO1 (setting [3]); in test [1]; in test [2] (setting [4]); on TDO) was 0.0001 to 10 µM in each case.
With `O=C(NC1CCC(F)(F)CC1)N1CCC(C(F)(F)C(=O)c2c(F)c(Cl)cc3cn[nH]c23)CC1` [Compound P-0041, 4-(2-(5-chloro-6-fluoro-1H-indazol-7-yl)-1,1-difluoro-2-oxoethyl)-N-(4,4-difluorocyclohexyl)piperidine-1-carboxamide], the IC50 (on IDO1 (setting [3]); in test [1]; in test [2] (setting [4]); at TDO) was 0.0001 to 10 µM in each case.
On to `CS(=O)(=O)N1CC=C(c2cc(Cl)cc3cn[nH]c23)CC1` [Compound P-0098, 5-chloro-7-(1-(methylsulfonyl)-1,2,3,6-tetrahydropyridin-4-yl)-1H-indazole], for which the IC50 (on IDO1 (setting [3]); in test [1]; in test [2] (setting [4]); at TDO) was 0.0001 to 10 µM each time.
Regarding `COCC(=O)N1CCC(C(C)(C)C(O)c2cc(Cl)cc3[nH]ncc23)CC1` (stereo not shown) [Compound P-0049, 1-(4-(1-(6-chloro-1H-indazol-4-yl)-1-hydroxy-2-methylpropan-2-yl)piperidin-1-yl)-2-methoxyethan-1-one], the IC50 (at IDO1 (setting [3]); in test [1]; in test [2] (setting [4]); at TDO) was 0.0001 to 10 µM each time.
As for `CC(C)(C1CCN(C(=O)NO)CC1)[C@H](O)c1cc(Cl)cc2cn[nH]c12` [Compound P-0122, (S)-4-(1-(5-chloro-1H-indazol-7-yl)-1-hydroxy-2-methylpropan-2-yl)-N-hydroxypiperidine-1-carboxamide], the IC50 (on IDO1 (setting [3]); in test [1]; in test [2] (setting [4]); on TDO) was 0.0001 to 10 µM in each case.
In the case of `CC(C)(C1CCN(C(=O)N[C@H]2CCC[C@H]2O)CC1)[C@H](O)c1cc(Cl)cc2cn[nH]c12` [Compound P-0025, 4-((S)-1-(5-chloro-1H-indazol-7-yl)-1-hydroxy-2-methylpropan-2-yl)-N-((1S,2R)-2-hydroxycyclopentyl)piperidine-1-carboxamide], the IC50 (at IDO1 (setting [3]); in test [1]; in test [2] (setting [4]); at TDO) was 0.0001 to 10 µM throughout.
As to `CS(=O)(=O)CCNC(=O)N1CCC(C(F)(F)C(=O)c2c(F)c(Cl)cc3cn[nH]c23)CC1` [Compound P-0038, 4-(2-(5-chloro-6-fluoro-1H-indazol-7-yl)-1,1-difluoro-2-oxoethyl)-N-(2-(methylsulfonyl)ethyl)piperidine-1-carboxamide], the IC50 on IDO1 (setting [3]) is 0.0001 to 10 µM; in test [1], greater than 10 µM; in test [2] (setting [4]) it was 0.0001 to 10 µM; at TDO, 0.0001 to 10 µM.
With `CC(=O)N1CCC(C(F)(F)C(O)c2c(F)c(Cl)cc3cn[nH]c23)CC1` (stereo not shown) [Compound P-0056, 1-(4-(2-(5-chloro-6-fluoro-1H-indazol-7-yl)-1,1-difluoro-2-hydroxyethyl)piperidin-1-yl)ethan-1-one], in test [1], the IC50 was greater than 10 µM.
As for `CC(C)(C1CCN(C(=O)c2cccnc2)CC1)C(O)c1cc(Cl)cc2[nH]ncc12` (stereo not shown) [Compound P-0044, (4-(1-(6-chloro-1H-indazol-4-yl)-1-hydroxy-2-methylpropan-2-yl)piperidin-1-yl)(pyridin-3-yl)methanone], the IC50 (on IDO1 (setting [3]); in test [1]; in test [2] (setting [4]); at TDO) was 0.0001 to 10 µM throughout.
As for `O=S1(=O)CC2(CC(O)(c3cc(Cl)cc4cn[nH]c34)C2)C1` [Compound P-0057, 6-(5-chloro-1H-indazol-7-yl)-6-hydroxy-2-thiaspiro[3.3]heptane 2,2-dioxide], the IC50 (on IDO1 (setting [3]); in test [1]; on TDO) was 0.0001 to 10 µM each time.
For the molecule `CC(C)(C1CCN(C(=O)[C@@H]2CCNC2)CC1)[C@H](O)c1cc(Cl)cc2cn[nH]c12` [Compound P-0140, (4-((S)-1-(5-chloro-1H-indazol-7-yl)-1-hydroxy-2-methylpropan-2-yl)piperidin-1-yl)((R)-1λ^2-pyrrolidin-3-yl)methanone], the IC50 is greater than 10 µM in test [1] and 0.0001 to 10 µM in test [2] (setting [4]).
In the case of `OC1(c2cc(Cl)cc3[nH]ncc23)CC2(CCOCC2)C1`, the IC50 at IDO1 (comparative examples 4,6 vs 5,7 indazole, biochemical potency, read-out: IDO1) was 200 µM; in test [2] (setting [5]), no less than 10 µM.
Consider `CC(C)(C1CCN(C(=O)[C@H]2CCCN2)CC1)[C@H](O)c1cc(Cl)cc2cn[nH]c12` [Compound P-0139, (4-((S)-1-(5-chloro-1H-indazol-7-yl)-1-hydroxy-2-methylpropan-2-yl)piperidin-1-yl)((R)-1λ^2-pyrrolidin-2-yl)methanone], for which the IC50 in test [1] and in test [2] (setting [4]) was 0.0001 to 10 µM throughout.
`CC(C)(C)OC(=O)N1CCC2(CC1)CC(O)(c1cc(Cl)cc3cn[nH]c13)C2` [Compound P-0013, tert-butyl 2-(5-chloro-1H-indazol-7-yl)-2-hydroxy-7-azaspiro[3.5]nonane-7-carboxylate]: the IC50 (on IDO1 (setting [3]); in test [1]; at TDO) was 0.0001 to 10 µM each time.
As for `CS(=O)(=O)N1CC(O)(c2cc(Cl)cc3cn[nH]c23)C1` [Compound P-0018, 3-(5-chloro-1H-indazol-7-yl)-1-(methylsulfonyl)azetidin-3-ol], the IC50 (on IDO1 (setting [3]); in test [1]; at TDO) was 0.0001 to 10 µM each time.
`CC(C)(C1CCN(C(=O)[C@@H]2CCCN2)CC1)[C@H](O)c1cc(Cl)cc2cn[nH]c12` [Compound P-0138, (4-((S)-1-(5-chloro-1H-indazol-7-yl)-1-hydroxy-2-methylpropan-2-yl)piperidin-1-yl)((S)-1λ^2-pyrrolidin-2-yl)methanone]: the IC50 in test [1] and in test [2] (setting [4]) was 0.0001 to 10 µM throughout.
On to `OC1(c2cc(Cl)cc3cn[nH]c23)CC2(CC2)C1` [Compound P-0011, 5-(5-chloro-1H-indazol-7-yl)spiro[2.3]hexan-5-ol], for which the IC50 (at IDO1 (setting [3]); in test [1]; on TDO) was 0.0001 to 10 µM throughout.
For `CS(=O)(=O)N1CCC(O)(c2cc(Cl)cc3cn[nH]c23)CC1` [Compound P-0017, 4-(5-chloro-1H-indazol-7-yl)-1-(methylsulfonyl)piperidin-4-ol], the IC50 (on IDO1 (setting [3]); in test [1]; at TDO) was 0.0001 to 10 µM each time.
Take `OC1(c2cc(Cl)cc3cn[nH]c23)CC2(CCC2)C1`: in test [2] (setting [5]), the IC50 was no less than 10 µM.
`OC1(c2cc(Cl)cc3[nH]ncc23)CC2(CCC2)C1`: the IC50 in test [2] (setting [5]) was no less than 10 µM.
Turning to `CC(C)(C1CCN(C(=O)[C@H]2CCNC2)CC1)[C@H](O)c1cc(Cl)cc2cn[nH]c12` [Compound P-0141, (4-((S)-1-(5-chloro-1H-indazol-7-yl)-1-hydroxy-2-methylpropan-2-yl)piperidin-1-yl)((S)-1λ^2-pyrrolidin-3-yl)methanone], the IC50 was greater than 10 µM in test [1] and 0.0001 to 10 µM in test [2] (setting [4]).
Regarding `OC1(c2cc(Cl)cc3cn[nH]c23)CC2(CCNCC2)C1` [Compound P-0014, 2-(5-chloro-1H-indazol-7-yl)-7-azaspiro[3.5]nonan-2-ol], the IC50 on IDO1 (setting [3]) is 0.0001 to 10 µM.
